Test results as given in patent US7517874B2 (priority 2007, dated 2009).
Counter-ions that a name gives are not always drawn. Like-named read-outs stand apart in the source and are kept apart here.

Columns and labels:
[1] = molecular target: human CB1 receptor (hCB1) (Homo sapiens, UniProt P21554); assay: cell-based; format: cell-based
Experimental: (§1) The ability of compounds to act as agonists or inverse agonists at human CB2 and CB1 receptors (hCB2, hCB1, respectively) and at the rat CB2 receptor (rCB2) was determined by measuring changes in intracellular cAMP levels. Chinese Hamster Ovary (CHO-K1) cell lines stably expressing hCB2 (Genebank: X74328) or hCB1 (Genebank: X54937) were purchased from Euroscreen (Gosselies, Belgium). The rat CB2 receptor was expressed from genomic DNA (provided by M. Abood, California Pacific Medical Center) in CHO-K1 cells from expression plasmid vector, pcDNA3.1.
(§2) Cell lines were grown in suspension in EX-CELL 302 CHO Serum-free medium (Sigma, cat #14324C) supplemented with 1% Fetal Bovine Serum, glutamine and non-essential amino-acids under 0.4 mg/mL G418 selection.
(§3) Receptor mediated responses were determined by measuring changes in intracellular cAMP using LANCE cAMP detection kit (cat #AD0264, Perkin Elmer, Wellesley, Mass.) based on time-resolved fluorescence resonance energy transfer (TR-FRET). Changes in cAMP were determined in cells pre-incubated with IBMX (isobutyl methylxanthine) and prestimulated with NKH-477 (a water soluble forskolin derivative, cat #1603, Tocris, Ellisville, Mo.) to increase basal cAMP levels as detailed below.
(§4) On the day of the experiment, cells were spun at low speed for 5 min at room temperature. The supernatant was removed and cells were resuspended in stimulation buffer (Hanks Buffered Salt Solution/5 mM HEPES, containing 0.5 mM IBMX (cat #17018, Sigma) and 0.02% BSA (Perkin-Elmer, cat #CR84-100)). Cell clumps were removed by filtering through cell strainer 40 μm (BD Falcon, Discovery Labware, Bedford, Mass.) and diluted to 2×10^5 cells/mL. Antibody supplied with the LANCE cAMP immunoassay kit was then added according to the manufacturer's instructions. An aliquot of cells was taken for un-induced controls. To the remaining cells was added NKH-477 (a water soluble forskolin derivative, Tocris cat #1603) to a final concentration of 2-8 μM. Cells were then incubated for 30 min at room temperature prior to adding to Proxiplates containing test compounds (final DMSO concentration was less than 0.5%) with a Multidrop bulk dispenser, followed by a sixty minute incubation at room temperature. The response was stopped by addition of the detection mix supplied with the LANCE kit. The reagents were allowed to equilibrate for three hours prior to reading on an Envision multi-mode detector (Perkin-Elmer). TR-FRET was measured using a 330-380 nm excitation filter, a 665 nm emission filter, dichroic mirror 380 nm and Z=1 mm. Cyclic AMP concentrations in each well were back-calculated from a cAMP standard curve run concurrently during each assay. Each plate contained 16 wells of forskolin stimulated cells and 16 wells of forskolin plus CP55,940-treated cells. Cells were treated with 1 μM CP55,940 (Tocris cat. #0949). Concentrations of cAMP were expressed as a percent of the difference of these two groups of wells. Concentration-response data including EC50 (the concentration of compound producing 50% of the maximal response) and intrinsic activity (the percent maximal activation compared to full activation by CP55,940) were determined using a four-parameter non-linear regression algorithm (Xlfit equation 251, IDBS).

rat CB2 receptor (rCB2) = molecular target: T1, rat CB2 receptor (rCB2) (Rattus norvegicus, UniProt Q9QZN9); assay: cell-based; format: cell-based; details: for +/− RCB2: agonist or inverse agonist at rCB2; for EC50: groups >100 nM-10 μM and >10 μM, cAMP, CHO-K1 rCB2, read-out: EC50 RCB2
T1 sequence (Q9QZN9 1-360): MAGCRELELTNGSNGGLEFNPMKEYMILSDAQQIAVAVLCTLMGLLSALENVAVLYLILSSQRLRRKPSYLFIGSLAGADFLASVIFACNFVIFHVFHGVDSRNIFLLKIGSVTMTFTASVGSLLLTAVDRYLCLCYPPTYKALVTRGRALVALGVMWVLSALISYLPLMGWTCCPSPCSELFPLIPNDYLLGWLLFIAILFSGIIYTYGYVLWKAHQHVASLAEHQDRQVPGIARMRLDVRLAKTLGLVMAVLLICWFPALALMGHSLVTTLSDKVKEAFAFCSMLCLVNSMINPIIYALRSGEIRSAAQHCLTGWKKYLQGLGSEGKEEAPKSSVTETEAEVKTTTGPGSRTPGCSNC
Experimental: as §1, §2, §3, §4

[2] = groups >100 nM-10 μM and >10 μM, cAMP, CHO-K1 hCB1, read-out: EC50 HCB1

human CB1 receptor (hCB1), sequence (P21554 whole entry): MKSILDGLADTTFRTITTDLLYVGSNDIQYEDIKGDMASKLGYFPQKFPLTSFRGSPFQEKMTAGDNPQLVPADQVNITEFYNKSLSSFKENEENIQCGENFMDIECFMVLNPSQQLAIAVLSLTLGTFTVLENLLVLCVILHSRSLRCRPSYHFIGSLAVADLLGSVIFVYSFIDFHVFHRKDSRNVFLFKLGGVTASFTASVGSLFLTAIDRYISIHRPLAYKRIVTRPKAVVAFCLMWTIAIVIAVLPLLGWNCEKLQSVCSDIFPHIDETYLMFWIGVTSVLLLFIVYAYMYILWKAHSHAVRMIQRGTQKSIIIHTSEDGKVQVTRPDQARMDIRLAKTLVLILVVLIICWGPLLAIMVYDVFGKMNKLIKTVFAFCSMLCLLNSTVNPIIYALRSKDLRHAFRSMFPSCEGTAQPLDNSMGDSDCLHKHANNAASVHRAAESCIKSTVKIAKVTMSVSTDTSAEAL

Question: What does the source list for `CC(C)(CO)CNC(=O)c1nc(-c2ccccc2)n2c1CNCC2` [Compound 29, N-(3-hydroxy-2,2-dimethylpropyl)-3-phenyl-5,6,7,8-tetrahydroimidazo[1,5-a]pyrazine-1-carboxamide]?
Answer: EC50 [1, 2]: > 10000 nM; +/− RCB2 (rat CB2 receptor (rCB2)): −

Question: Which EC50 [1] does the source give for `CC(C)(C)OC(=O)N1CCn2c(-c3ccccc3)nc(C(=O)NC3C4(C)CCC(C4)C3(C)C)c2C1` (stereo not shown) [Compound 30, tert-butyl 3-phenyl-1-(1,3,3-trimethylbicyclo[2.2.1]heptan-2-ylcarbamoyl)-5,6-dihydroimidazo[1,5-a]pyrazine-7(8H)-carboxylate] here?
Answer: > 10000 nM

Question: And the “+/− RCB2” value (rat CB2 receptor (rCB2))?
Answer: −

Question: What does the source list for `C[C@H](NC(=O)c1nc(-c2ccccc2)n2c1CN(C(=O)OC(C)(C)C)CC2)c1ccccc1` [Compound 31, (S)-tert-butyl 3-phenyl-1-(1-phenylethylcarbamoyl)-5,6-dihydroimidazo[1,5-a]pyrazine-7(8H)-carboxylate]?
Answer: EC50 [1, 2]: > 10000 nM; +/− RCB2 (rat CB2 receptor (rCB2)): −

Question: With `CC(C)(C)OC(=O)N1CCn2c(-c3ccccc3)nc(C(=O)Nc3ccccc3)c2C1` [Compound 32, tert-butyl 3-phenyl-1-(phenylcarbamoyl)-5,6-dihydroimidazo[1,5-a]pyrazine-7(8H)-carboxylate] as the molecule, how does the EC50 [1] read?
Answer: > 10000 nM

Question: And the “+/− RCB2” value (rat CB2 receptor (rCB2))?
Answer: −

Question: How did the EC50 [1, 2] turn out when `CC(C)CCNC(=O)c1nc(-c2ccc(Cl)cc2)n2c1CN(C(=O)OC(C)(C)C)CC2` [Compound 33, tert-butyl 3-(4-chlorophenyl)-1-(isopentylcarbamoyl)-5,6-dihydroimidazo[1,5-a]pyrazine-7(8H)-carboxylate] was run?
Answer: > 10000 nM

Question: What about the “+/− RCB2” value (rat CB2 receptor (rCB2)) of the same molecule?
Answer: −

Question: For `CC(C)(C)OC(=O)N1CCn2c(-c3ccc(Cl)cc3)nc(C(=O)N[C@H](CO)C(C)(C)C)c2C1` [Compound 34, (S)-tert-butyl 3-(4-chlorophenyl)-1-(1-hydroxy-3,3-dimethylbutan-2-ylcarbamoyl)-5,6-dihydroimidazo[1,5-a]pyrazine-7(8H)-carboxylate], which EC50 [1] is on record?
Answer: > 10000 nM

Question: And the “+/− RCB2” value (rat CB2 receptor (rCB2))?
Answer: −

Question: How did the EC50 [1, 2] turn out when `CC(C)(C)OC(=O)N1CCn2c(-c3ccccc3)nc(C(=O)NN3CCCCC3)c2C1` [Compound 35, tert-butyl 3-phenyl-1-(piperidin-1-ylcarbamoyl)-5,6-dihydroimidazo[1,5-a]pyrazine-7(8H)-carboxylate] was run?
Answer: > 10000 nM

Question: What about the “+/− RCB2” value (rat CB2 receptor (rCB2)) of the same molecule?
Answer: −

Question: With `CC(C)(C)OC(=O)N1CCn2c(-c3ccccc3)nc(C(=O)NC3CCCCC3)c2C1` [Compound 36, tert-butyl 1-(cyclohexylcarbamoyl)-3-phenyl-5,6-dihydroimidazo[1,5-a]pyrazine-7(8H)-carboxylate] as the molecule, how does the EC50 [1] read?
Answer: > 10000 nM

Question: And the “+/− RCB2” value (rat CB2 receptor (rCB2))?
Answer: −

Question: Which EC50 [1] does the source give for `C[C@@H](NC(=O)c1nc(-c2ccccc2)n2c1CN(C(=O)OC(C)(C)C)CC2)C1CCCCC1` [Compound 37, (R)-tert-butyl 1-(1-cyclohexylethylcarbamoyl)-3-phenyl-5,6-dihydroimidazo[1,5-a]pyrazine-7(8H)-carboxylate] here?
Answer: > 10000 nM

Question: And the “+/− RCB2” value (rat CB2 receptor (rCB2))?
Answer: −

Question: Which results are given for `CC(C)(C)OC(=O)N1CCn2c(-c3ccccc3)nc(C(=O)NCC3CCOCC3)c2C1` [Compound 38, tert-butyl 3-phenyl-1-((tetrahydro-2H-pyran-4-yl)methylcarbamoyl)-5,6-dihydroimidazo[1,5-a]pyrazine-7(8H)-carboxylate]?
Answer: EC50 [1, 2]: > 10000 nM; +/− RCB2 (rat CB2 receptor (rCB2)): −

Question: What does the source list for `CC12CCC(C1)C(C)(C)C2NC(=O)c1nc(-c2ccccc2)n2c1CNCC2` (stereo not shown) [Compound 39, 3-Phenyl-N-(1,3,3-trimethylbicyclo[2.2.1]heptan-2-yl)-5,6,7,8-tetrahydro-imidazo[1,5-a]pyrazine-1-carboxamide HCl]?
Answer: EC50 [1]: > 10000 nM; +/− RCB2 (rat CB2 receptor (rCB2)): +

Question: With `C[C@H](NC(=O)c1nc(-c2ccccc2)n2c1CNCC2)c1ccccc1` [Compound 40, (S)-3-phenyl-N-(1-phenylethyl)-5,6,7,8-tetrahydroimidazo[1,5-a]pyrazine-1-carboxamide] as the molecule, how does the EC50 [1] read?
Answer: > 10000 nM

Question: What about the “+/− RCB2” value (rat CB2 receptor (rCB2)) of the same molecule?
Answer: +

Question: `O=C(Nc1ccccc1)c1nc(-c2ccccc2)n2c1CNCC2` [Compound 41, N,3-diphenyl-5,6,7,8-tetrahydroimidazo[1,5-a]pyrazine-1-carboxamide] was tested. Which EC50 [1, 2] did it give?
Answer: > 10000 nM

Question: And the EC50 (rat CB2 receptor (rCB2))?
Answer: > 10000 nM

Question: `CC(C)CCNC(=O)c1nc(-c2ccc(Cl)cc2)n2c1CNCC2` [Compound 42, 3-(4-chlorophenyl)-N-isopentyl-5,6,7,8-tetrahydroimidazo[1,5-a]pyrazine-1-carboxamide] was tested. Which EC50 [1, 2] did it give?
Answer: > 10000 nM

Question: And the “+/− RCB2” value (rat CB2 receptor (rCB2))?
Answer: −

Question: For `CC(C)(C)[C@@H](CO)NC(=O)c1nc(-c2ccc(Cl)cc2)n2c1CNCC2` [Compound 43, (S)-3-(4-chlorophenyl)-N-(1-hydroxy-3,3-dimethylbutan-2-yl)-5,6,7,8-tetrahydroimidazo[1,5-a]pyrazine-1-carboxamide], which EC50 [1] is on record?
Answer: > 10000 nM

Question: What about the “+/− RCB2” value (rat CB2 receptor (rCB2)) of the same molecule?
Answer: −

Question: How did the EC50 [1] turn out when `O=C(NN1CCCCC1)c1nc(-c2ccccc2)n2c1CNCC2` [Compound 44, 3-phenyl-N-(piperidin-1-yl)-5,6,7,8-tetrahydroimidazo[1,5-a]pyrazine-1-carboxamide] was run?
Answer: > 10000 nM

Question: And the “+/− RCB2” value (rat CB2 receptor (rCB2))?
Answer: −

Question: Which results are given for `C[C@@H](NC(=O)c1nc(-c2ccccc2)n2c1CNCC2)C1CCCCC1` [Compound 45, (R)-N-(1-cyclohexylethyl)-3-phenyl-5,6,7,8-tetrahydroimidazo[1,5-a]pyrazine-1-carboxamide]?
Answer: EC50 [1, 2]: > 10000 nM; +/− RCB2 (rat CB2 receptor (rCB2)): −

Question: Which EC50 [1, 2] does the source give for `O=C(NCC1CCOCC1)c1nc(-c2ccccc2)n2c1CNCC2` [Compound 46, 3-phenyl-N-((tetrahydro-2H-pyran-4-yl)methyl)-5,6,7,8-tetrahydroimidazo[1,5-a]pyrazine-1-carboxamide] here?
Answer: > 10000 nM

Question: And the “+/− RCB2” value (rat CB2 receptor (rCB2))?
Answer: −

Question: Which results are given for `O=C(NC1CCCCC1)c1nc(-c2ccccc2)n2c1CNCC2` [Compound 47, N-cyclohexyl-3-phenyl-5,6,7,8-tetrahydroimidazo[1,5-a]pyrazine-1-carboxamide]?
Answer: EC50 [1, 2]: > 10000 nM; EC50 (rat CB2 receptor (rCB2)): > 10000 nM

Question: How did the EC50 [1] turn out when `CNC(=O)[C@@H](NC(=O)c1nc(-c2ccccc2)n2c1CN(C)CC2)C(C)(C)C` [Compound 48, (S)-N-(3,3-dimethyl-1-(methylamino)-1-oxobutan-2-yl)-7-methyl-3-phenyl-5,6,7,8-tetrahydroimidazo[1,5-a]pyrazine-1-carboxamide] was run?
Answer: > 10000 nM

Question: What about the “+/− RCB2” value (rat CB2 receptor (rCB2)) of the same molecule?
Answer: +

Question: For `CNC(=O)[C@@H](NC(=O)c1nc(-c2ccc(Cl)cc2)n2c1CN(C)CC2)C(C)(C)C` [Compound 49, (S)-3-(4-chlorophenyl)-N-(3,3-dimethyl-1-(methylamino)-1-oxobutan-2-yl)-7-methyl-5,6,7,8-tetrahydroimidazo[1,5-a]pyrazine-1-carboxamide], which EC50 [1] is on record?
Answer: > 10000 nM

Question: What about the “+/− RCB2” value (rat CB2 receptor (rCB2)) of the same molecule?
Answer: −

Question: How did the EC50 [1, 2] turn out when `C[C@@H](NC(=O)c1nc(-c2ccccc2)n2c1CN(C)CC2)C(C)(C)C` [Compound 50, (R)-N-(3,3-dimethylbutan-2-yl)-7-methyl-3-phenyl-5,6,7,8-tetrahydroimidazo[1,5-a]pyrazine-1-carboxamide] was run?
Answer: > 10000 nM

Question: What about the EC50 (rat CB2 receptor (rCB2)) of the same molecule?
Answer: > 10000 nM

Question: How did the EC50 [1, 2] turn out when `C[C@H](NC(=O)c1nc(-c2ccccc2)n2c1CN(C)CC2)C(C)(C)C` [Compound 51, (S)-N-(3,3-dimethylbutan-2-yl)-7-methyl-3-phenyl-5,6,7,8-tetrahydroimidazo[1,5-a]pyrazine-1-carboxamide] was run?
Answer: > 10000 nM

Question: What about the EC50 (rat CB2 receptor (rCB2)) of the same molecule?
Answer: > 10000 nM
